One block for each compound: values may come before it. Calls of active or inactive are those of the source.
Assays:
[1] = blockers of HIV-1 envelope-mediated cell-cell fusion – cherry-pick, dose response (AID 652057); format: functional, cell-based
[2] = off-target signal loss in HeLa-CEM21 co-culture – HeLa F-luc CTL cells, cherry-picked, counter-screen for HIV-1 Env fusion inhibitor project, dose response (AID 652040); format: functional, cell-based;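 further: potency for signal decrease marking cytotoxic or nonspecific inhibition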
[3] = HIV-1 AD8 envelope cell-cell fusion blockers – cherry-pick, dose response (AID 652062); format: functional, cell-based;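 further: luciferase signal from cell-cell fusion driven by HIV-1 clade B AD8 Env; potency is for inhibitors of fusion seen as a drop in luminescence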
Estrogen receptor = biological target: T1, Estrogen receptor (Homo sapiens, UniProt P03372);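 further: potency for inhibiting coactivator peptide recruitment to the receptor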
T1 sequence (P03372 whole entry): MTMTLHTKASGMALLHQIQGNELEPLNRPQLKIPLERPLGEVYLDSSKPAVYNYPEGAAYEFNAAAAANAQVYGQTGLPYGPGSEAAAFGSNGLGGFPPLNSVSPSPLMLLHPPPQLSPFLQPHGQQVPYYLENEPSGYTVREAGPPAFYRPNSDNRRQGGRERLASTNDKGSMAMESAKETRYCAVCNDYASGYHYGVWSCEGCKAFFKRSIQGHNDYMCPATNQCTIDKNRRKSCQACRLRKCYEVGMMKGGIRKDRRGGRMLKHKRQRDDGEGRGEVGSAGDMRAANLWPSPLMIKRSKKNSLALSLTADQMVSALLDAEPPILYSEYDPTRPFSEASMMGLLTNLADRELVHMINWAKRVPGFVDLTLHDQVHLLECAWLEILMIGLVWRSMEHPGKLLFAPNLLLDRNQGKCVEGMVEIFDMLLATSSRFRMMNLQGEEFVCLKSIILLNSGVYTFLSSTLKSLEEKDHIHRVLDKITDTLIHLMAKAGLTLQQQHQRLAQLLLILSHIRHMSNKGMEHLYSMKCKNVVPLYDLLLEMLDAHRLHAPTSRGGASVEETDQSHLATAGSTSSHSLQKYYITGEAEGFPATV

[4] = blockers of HIV-1 ZM109 envelope-driven cell-cell fusion – HeLa effector, CEM target cells, luciferase, cherry-pick, dose response (AID 652058); format: functional, cell-based;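 further: luciferase signal from HIV-1 Env mediated cell-cell fusion of effector and target cells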
[5] = blockers of bursicon-stimulated LGR2 cAMP reporter – cell-based, HEK293, CRE-luciferase reporter, cherry pick, set 2, dose response (AID 743343); format: functional;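 further: transfected cells were stimulated with diluted bursicon conditioned medium after compound addition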
Protein skinhead-1 = biological target: T2, Protein skinhead-1 (Caenorhabditis elegans, UniProt P34707); format: functional
T2 sequence (P34707 whole entry): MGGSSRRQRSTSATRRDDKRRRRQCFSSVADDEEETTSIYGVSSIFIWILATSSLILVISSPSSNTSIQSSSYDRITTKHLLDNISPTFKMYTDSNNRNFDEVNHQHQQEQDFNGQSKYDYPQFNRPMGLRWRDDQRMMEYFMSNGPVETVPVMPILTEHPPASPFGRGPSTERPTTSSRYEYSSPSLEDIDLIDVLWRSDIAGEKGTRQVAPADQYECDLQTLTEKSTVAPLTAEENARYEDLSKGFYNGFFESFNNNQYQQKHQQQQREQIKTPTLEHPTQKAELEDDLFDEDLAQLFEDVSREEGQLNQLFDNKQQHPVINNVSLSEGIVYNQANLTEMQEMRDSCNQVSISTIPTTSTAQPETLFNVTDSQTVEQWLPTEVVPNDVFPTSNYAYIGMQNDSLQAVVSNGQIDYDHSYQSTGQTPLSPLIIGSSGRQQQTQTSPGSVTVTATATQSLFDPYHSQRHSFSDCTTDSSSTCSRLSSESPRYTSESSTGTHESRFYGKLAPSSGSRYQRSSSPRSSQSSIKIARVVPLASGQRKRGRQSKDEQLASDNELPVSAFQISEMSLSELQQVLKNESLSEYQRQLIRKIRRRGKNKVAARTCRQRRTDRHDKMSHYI

[6] = A549 cell cytotoxicity, dose response, cytotoxicity control, plate reader, cherry-pick, antagonist series (AID 743412); format: functional, cell-based
[7] = biological target: T3, Acyl-homoserine lactone acylase PvdQ (Pseudomonas aeruginosa (strain LESB58), UniProt Q9I194); test: PvdQ acylase enzyme activity blockers – biochemical, fluorescence, plate reader and imaging, cherry-picks, dose response (AID 493231)
T3 sequence (Q9I194 whole entry): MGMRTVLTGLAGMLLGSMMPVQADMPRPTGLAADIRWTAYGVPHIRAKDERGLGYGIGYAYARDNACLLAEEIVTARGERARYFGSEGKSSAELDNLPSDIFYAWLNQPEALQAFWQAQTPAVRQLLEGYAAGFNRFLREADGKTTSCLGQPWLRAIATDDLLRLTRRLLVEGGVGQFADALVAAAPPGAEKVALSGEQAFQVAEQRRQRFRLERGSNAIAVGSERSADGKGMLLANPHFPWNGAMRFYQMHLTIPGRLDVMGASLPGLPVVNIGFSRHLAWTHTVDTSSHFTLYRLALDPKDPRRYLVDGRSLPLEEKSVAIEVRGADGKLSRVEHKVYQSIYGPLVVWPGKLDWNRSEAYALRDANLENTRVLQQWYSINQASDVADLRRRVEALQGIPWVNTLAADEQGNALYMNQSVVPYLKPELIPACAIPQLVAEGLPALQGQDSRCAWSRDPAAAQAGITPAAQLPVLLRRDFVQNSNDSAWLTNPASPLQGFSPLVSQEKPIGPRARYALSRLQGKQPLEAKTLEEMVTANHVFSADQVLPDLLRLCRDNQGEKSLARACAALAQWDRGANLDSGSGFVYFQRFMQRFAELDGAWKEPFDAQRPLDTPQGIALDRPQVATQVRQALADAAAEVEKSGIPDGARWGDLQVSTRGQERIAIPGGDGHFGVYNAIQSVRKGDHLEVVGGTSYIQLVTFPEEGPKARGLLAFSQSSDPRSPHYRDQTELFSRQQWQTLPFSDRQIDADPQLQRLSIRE

[8] = biological target: T4, Heat shock factor protein 1 (Mus musculus, UniProt P38532); test: decrease of HSF1-responsive luciferase luminescence – cell-based, NIH3T3, dose retest, confirmation (AID 2382); format: functional;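 further: NIH3T3 fibroblasts with HSF1-driven luciferase reporter stressed by proteasome inhibitor MG132; luminescence from HSF1-driven luciferase expression after 8 hours of MG132 stress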
T4 sequence (P38532 whole entry): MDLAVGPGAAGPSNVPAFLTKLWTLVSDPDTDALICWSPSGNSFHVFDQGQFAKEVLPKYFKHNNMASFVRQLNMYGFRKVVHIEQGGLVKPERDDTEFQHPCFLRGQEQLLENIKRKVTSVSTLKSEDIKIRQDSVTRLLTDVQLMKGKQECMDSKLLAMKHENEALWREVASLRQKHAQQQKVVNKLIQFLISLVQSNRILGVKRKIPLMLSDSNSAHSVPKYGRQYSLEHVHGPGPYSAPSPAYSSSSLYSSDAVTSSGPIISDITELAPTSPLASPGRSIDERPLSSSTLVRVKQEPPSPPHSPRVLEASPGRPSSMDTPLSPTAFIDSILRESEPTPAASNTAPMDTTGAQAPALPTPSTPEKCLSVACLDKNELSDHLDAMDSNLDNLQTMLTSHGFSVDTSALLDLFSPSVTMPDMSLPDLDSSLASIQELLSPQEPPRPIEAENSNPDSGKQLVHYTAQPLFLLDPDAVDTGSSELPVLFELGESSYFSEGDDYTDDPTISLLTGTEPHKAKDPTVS

[9] = blockade of melanocortin 4 receptor signaling – cell-based, plate reader, cherry pick, counter-screen for LGR2 antagonist project, dose response (AID 743444); format: functional;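 further: transfected HEK 293 cells stimulated with alpha-MSH peptide; potency of inhibitors of the alpha-MSH evoked signal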
[10] = biological target: Voltage-dependent T-type calcium channel subunit alpha-1H (Homo sapiens, UniProt O95180); format: functional;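 further: channel activity triggered by adding a high calcium stimulation buffer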
Sequence of Voltage-dependent T-type calcium channel subunit alpha-1H (O95180 whole entry): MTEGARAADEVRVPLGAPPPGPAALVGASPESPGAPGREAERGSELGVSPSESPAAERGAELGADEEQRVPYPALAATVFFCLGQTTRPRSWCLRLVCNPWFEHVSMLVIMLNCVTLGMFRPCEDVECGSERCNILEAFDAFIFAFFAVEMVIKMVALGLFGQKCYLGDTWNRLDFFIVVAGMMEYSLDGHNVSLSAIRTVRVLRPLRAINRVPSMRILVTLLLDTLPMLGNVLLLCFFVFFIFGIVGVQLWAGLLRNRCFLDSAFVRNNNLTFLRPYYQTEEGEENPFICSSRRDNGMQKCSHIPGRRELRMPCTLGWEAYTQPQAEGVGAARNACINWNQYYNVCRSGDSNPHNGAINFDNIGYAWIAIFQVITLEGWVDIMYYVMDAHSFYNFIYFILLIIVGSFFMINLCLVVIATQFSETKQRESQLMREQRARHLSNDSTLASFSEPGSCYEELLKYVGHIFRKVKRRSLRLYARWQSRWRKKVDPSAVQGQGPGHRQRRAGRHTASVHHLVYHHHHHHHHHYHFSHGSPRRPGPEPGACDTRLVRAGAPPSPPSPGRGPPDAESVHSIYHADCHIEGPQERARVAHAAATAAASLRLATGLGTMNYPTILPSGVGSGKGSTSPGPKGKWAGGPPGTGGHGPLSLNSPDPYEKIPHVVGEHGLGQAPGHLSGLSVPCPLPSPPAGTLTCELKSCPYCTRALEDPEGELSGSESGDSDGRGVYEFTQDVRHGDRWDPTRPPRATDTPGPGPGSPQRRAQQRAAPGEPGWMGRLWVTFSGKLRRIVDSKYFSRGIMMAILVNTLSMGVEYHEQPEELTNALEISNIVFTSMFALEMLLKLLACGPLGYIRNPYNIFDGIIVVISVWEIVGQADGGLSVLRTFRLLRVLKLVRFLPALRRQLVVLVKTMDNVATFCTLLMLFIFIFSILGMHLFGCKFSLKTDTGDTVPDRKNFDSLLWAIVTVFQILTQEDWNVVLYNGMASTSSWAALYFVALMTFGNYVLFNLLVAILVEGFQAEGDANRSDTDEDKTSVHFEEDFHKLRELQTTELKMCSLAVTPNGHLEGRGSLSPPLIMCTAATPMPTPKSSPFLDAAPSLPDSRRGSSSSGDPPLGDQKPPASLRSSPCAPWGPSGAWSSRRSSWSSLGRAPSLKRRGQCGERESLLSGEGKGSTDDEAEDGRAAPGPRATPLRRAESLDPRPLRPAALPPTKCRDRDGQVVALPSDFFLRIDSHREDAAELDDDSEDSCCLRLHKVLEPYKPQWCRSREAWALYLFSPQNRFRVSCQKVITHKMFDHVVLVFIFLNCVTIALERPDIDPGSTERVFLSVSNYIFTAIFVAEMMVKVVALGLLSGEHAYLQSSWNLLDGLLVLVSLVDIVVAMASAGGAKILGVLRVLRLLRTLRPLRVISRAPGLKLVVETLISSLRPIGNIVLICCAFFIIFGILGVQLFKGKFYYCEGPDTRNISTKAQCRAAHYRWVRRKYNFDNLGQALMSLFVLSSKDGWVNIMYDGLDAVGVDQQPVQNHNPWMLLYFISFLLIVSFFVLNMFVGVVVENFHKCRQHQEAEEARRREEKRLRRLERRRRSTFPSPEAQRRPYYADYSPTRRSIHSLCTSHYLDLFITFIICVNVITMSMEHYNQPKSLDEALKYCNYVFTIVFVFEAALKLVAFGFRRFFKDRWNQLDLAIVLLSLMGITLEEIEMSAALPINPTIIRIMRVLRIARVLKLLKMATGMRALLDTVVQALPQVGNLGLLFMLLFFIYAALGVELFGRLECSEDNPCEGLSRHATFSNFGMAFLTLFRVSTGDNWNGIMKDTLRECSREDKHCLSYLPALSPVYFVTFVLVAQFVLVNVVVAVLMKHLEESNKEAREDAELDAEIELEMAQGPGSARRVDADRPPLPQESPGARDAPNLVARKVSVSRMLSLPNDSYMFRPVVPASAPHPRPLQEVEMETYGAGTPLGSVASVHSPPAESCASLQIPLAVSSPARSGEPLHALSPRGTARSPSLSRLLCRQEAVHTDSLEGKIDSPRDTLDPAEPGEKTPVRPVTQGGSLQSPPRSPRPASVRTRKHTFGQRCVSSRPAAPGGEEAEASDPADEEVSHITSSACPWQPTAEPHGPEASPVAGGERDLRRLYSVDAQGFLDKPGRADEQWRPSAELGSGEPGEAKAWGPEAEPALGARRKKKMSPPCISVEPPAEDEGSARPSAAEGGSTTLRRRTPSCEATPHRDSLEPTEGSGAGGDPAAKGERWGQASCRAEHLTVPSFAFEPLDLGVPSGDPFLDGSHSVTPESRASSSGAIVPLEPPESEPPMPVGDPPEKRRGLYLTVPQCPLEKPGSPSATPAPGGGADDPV

[11] = glucagon-like peptide-1 release potency in STC-1, concentration-response, half-maximal inhibitory concentration in the STC-1 line (AID 1117345); format: functional, cell-based
[12] = Potency on glucagon-like peptide 1 release, dose-response in NCI-H716 cell line, half maximal inhibitory concentration (AID 1117344); format: functional, cell-based
[13] = biological target: G-protein coupled receptor 55 (Homo sapiens, UniProt Q9Y2T6); test: inhibition of LPI-stimulated GPR55 beta-arrestin translocation – imaging, U2OS, beta-arrestin-GFP, LPI agonist, primary screen (AID 2013); format: functional;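 further: antagonist potency measured as reduced agonist-driven arrestin aggregation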
Sequence of G-protein coupled receptor 55 (Q9Y2T6 whole entry): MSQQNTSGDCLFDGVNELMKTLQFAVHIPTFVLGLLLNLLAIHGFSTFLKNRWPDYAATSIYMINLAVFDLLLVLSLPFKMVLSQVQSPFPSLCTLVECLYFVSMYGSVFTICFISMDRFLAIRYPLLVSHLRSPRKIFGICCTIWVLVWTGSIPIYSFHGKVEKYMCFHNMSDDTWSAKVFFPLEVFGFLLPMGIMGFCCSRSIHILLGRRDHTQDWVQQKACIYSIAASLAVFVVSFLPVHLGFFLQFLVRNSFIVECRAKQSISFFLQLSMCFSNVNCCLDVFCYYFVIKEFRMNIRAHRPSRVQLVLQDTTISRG

[14] = biological target: T5, Luciferin 4-monooxygenase (Photinus pyralis, UniProt P08659); test: Counter Screen for Luciferase-based Assay Positives. [Related pubchem assays: 620, 618, 411 ]
T5 sequence (P08659 whole entry): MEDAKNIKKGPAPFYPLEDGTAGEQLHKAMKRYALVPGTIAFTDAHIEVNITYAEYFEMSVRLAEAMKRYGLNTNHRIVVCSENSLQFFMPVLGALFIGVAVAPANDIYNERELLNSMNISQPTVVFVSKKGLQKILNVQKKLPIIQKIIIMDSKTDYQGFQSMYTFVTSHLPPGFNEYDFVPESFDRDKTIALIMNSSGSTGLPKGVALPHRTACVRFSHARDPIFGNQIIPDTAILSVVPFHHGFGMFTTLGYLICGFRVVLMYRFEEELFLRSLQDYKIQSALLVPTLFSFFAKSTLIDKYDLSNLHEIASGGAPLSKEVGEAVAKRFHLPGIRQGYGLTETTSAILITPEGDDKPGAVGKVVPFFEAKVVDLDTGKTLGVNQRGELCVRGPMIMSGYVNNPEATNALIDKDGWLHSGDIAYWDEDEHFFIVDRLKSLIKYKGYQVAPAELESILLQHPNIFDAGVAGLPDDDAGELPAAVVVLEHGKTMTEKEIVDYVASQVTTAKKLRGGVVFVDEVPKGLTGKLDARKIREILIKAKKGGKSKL

BJ [15] = test: cells; format: functional, cell-based; settings: Homo sapiens
HT-1080 = test: HT1080 cell viability loss – fluorescence readout (AID 620); format: functional, cell-based; settings: Homo sapiens
BJ [16] = test: BJ-TERT fibroblast viability loss – cell-based, RAS-independent, luminescence, dose response (AID 1933); format: functional; settings: Homo sapiens
BJ [17] = test: BJ-TERT-LT-ST fibroblast viability loss – cell-based, RAS-independent, luminescence, dose response (AID 1935); format: functional; settings: Homo sapiens;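 further: BJ fibroblasts immortalized with TERT plus LT and ST oncogenes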
[18] = DRD fibroblast viability loss – cell-based, non-viral oncogenic, luminescence, dose response (AID 1934); format: functional; settings: Homo sapiens
[19] = biological target: T5, Luciferin 4-monooxygenase; test: inhibition of purified Photinus pyralis luciferase – biochemical, luminescence, dose response (AID 1891)
[20] = Luminescence Cell-Based Dose Confirmation HTS to Identify Inhibitors of Platelet Dense Granule Release. [Related pubchem assays: 1663 (Primary HTS), 1678 (Summary of Project)]; format: functional

Structure (SMILES): Cc1ccc(C(C(=O)NC(C)(C)C)N(Cc2cccs2)C(=O)c2csnn2)cc1 (configuration not stated)
AC50 [1]: 10.2 µM (active)
AC50 [2]: 22.6 µM (active)
AC50 [3]: 1.67 µM (active)
IC50 (Estrogen receptor): > 50 µM (not active)
AC50 [4]: 17.5 µM (active)

Structure (SMILES): CCOc1ccc(-c2cnc3ccccc3n2)cc1
AC50 [5]: 1.77 µM (active)
IC50 (Protein skinhead-1): > 100 µM (inactive)
AC50 [6]: 30.8 µM (active)
AC50 [7]: 97.4 µM (active)
EC50 [8]: 10 µM (active)
AC50 [9]: 1.8 µM (active)

EC50 [10]: 2.54 µM (active)
Structure (SMILES): CCN(CCCNC(=O)CCc1nc(-c2ccc(C)cc2)no1)c1cccc(C)c1

Structure (SMILES): CCCCCCCCCCCCOCCOCCOCCOCCOCCOCCOCCOCCOCCO
IC50 [11]: 30.4 µM (inactive)
IC50 [12]: > 40 µM (inactive)

IC50 [13]: 1.92 µM (active)
Structure (SMILES): Cc1ccc(CNCc2cc3c(C(C)(C)C)nn(-c4ccccc4)c3[nH]c2=O)cc1

IC50 [13]: 0.624 µM (active)
Structure (SMILES): Cn1c(=O)n(C/C=C/c2ccccc2)c(=O)c2c1nc1n2CCCN1c1ccc(F)cc1

Structure (SMILES): O=C(Nc1ccccn1)c1cc2ccccc2o1
EC50 [14]: 0.22 µM (active)
EC50 (BJ [15]): 16.1 µM (active)
EC50 (HT-1080): > 50 µM (not active)
EC50 (BJ [16]): 11.2 µM (active)
EC50 (BJ [17]): > 150 µM (inconclusive)
EC50 [18]: 11.2 µM (active)
EC50 [19]: 3.03 µM (active)
EC50 [20]: 3.9 µM (active)

Structure (SMILES): Nc1ccc(Cl)cc1C(=O)c1ccccc1F
IC50 [11]: > 40 µM (inactive)
IC50 [12]: > 40 µM (inactive)

EC50 [10]: 60.1 µM (active)
Structure (SMILES): CCCC(C)NC(=O)c1ccc2[nH]c3c(c2c1)CC(C)CC3 (configuration not stated)

— ChEMBL document CHEMBL1201862, “PubChem BioAssay data set” (2004)
